Measured values published in patent US20210045385A1, “PYRIDAZINONE-SUBSTITUTED KETOXIMES AS HERBICIDES” (FMC Corporation, priority 2018, published 2021).

Experiments:
Assay type in all cases: in vivo
[1] = test system: rice (Oryza sativa); assay: Test B flooded paddy test, visual plant response rating; conditions: 250 g ai/ha, Flood, applied to paddy water, 2-leaf stage, evaluated after 13 to 15 days
How it was run: (§1)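 Rice, umbrella sedge, ducksalad and barnyardgrass grown to 2-leaf stage; pots flooded 3 cm above soil and compound applied directly to paddy water, depth maintained.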

[2] = test system: ducksalad (Heteranhera limosa); assay: as above; conditions: 250 g ai/ha, Flood, applied to paddy water, 2-leaf stage, evaluated after 13 to 15 days
How it was run: as §1

[3] = test system: sedge, umbrella (small-flower umbrella sedge, Cyperus difformis); assay: as above; conditions: 250 g ai/ha, Flood, applied to paddy water, 2-leaf stage, evaluated after 13 to 15 days
How it was run: as §1

[4] = test system: barnyardgrass (Echinochloa crus-galli); assay: as above; conditions: 250 g ai/ha, Flood, applied to paddy water, 2-leaf stage, evaluated after 13 to 15 days
How it was run: as §1

[5] = test system: Italian ryegrass (Lolium multiflorum); assay: Test A postemergence, visual plant response rating; conditions: for Ryegrass, Italian plant response rating (0 to 100 scale): 500 g ai/ha, postemergence, 0 is no effect, 100 is complete control; for Ryegrass, Italian plant response rating: Postemergence, 125 g ai/ha, 0 to 100 scale (0 no effect, 100 complete control)
How it was run: (§2)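 Formulated in a non-phytotoxic solvent mixture including surfactant, each test chemical was sprayed onto the soil surface after sowing, or onto seedlings 2 to 10 cm high. Roughly 10 days later, plants were compared with untreated controls and rated for injury from 0 (no effect) to 100 (complete control).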

[6] = test system: kochia (Kochia scoparia); assay: Test A postemergence, visual plant response rating; conditions: for Kochia plant response rating (0 to 100 scale): 500 g ai/ha, postemergence, 0 is no effect, 100 is complete control; for Kochia plant response rating: Postemergence, 125 g ai/ha, 0 to 100 scale (0 no effect, 100 complete control)
How it was run: as §2

[7] = test system: galium (catchweed bedstraw, Galium aparine); assay: Test A postemergence, visual plant response rating; conditions: for Galium plant response rating (0 to 100 scale): 500 g ai/ha, postemergence, 0 is no effect, 100 is complete control; for Galium plant response rating: Postemergence, 125 g ai/ha, 0 to 100 scale (0 no effect, 100 complete control)
How it was run: as §2

[8] = test system: blackgrass (Alopecurus myosuroides); assay: Test A postemergence, visual plant response rating; conditions: for Blackgrass plant response rating (0 to 100 scale): 500 g ai/ha, postemergence, 0 is no effect, 100 is complete control; for Blackgrass plant response rating: Postemergence, 125 g ai/ha, 0 to 100 scale (0 no effect, 100 complete control)
How it was run: as §2

[9] = test system: corn (Zea mays); assay: Test A postemergence, visual plant response rating; conditions: for Corn plant response rating (0 to 100 scale): 500 g ai/ha, postemergence, 0 is no effect, 100 is complete control; for Corn plant response rating: Postemergence, 125 g ai/ha, 0 to 100 scale (0 no effect, 100 complete control)
How it was run: as §2

[10] = test system: foxtail, giant (giant foxtail, Setaria faberii); assay: Test A postemergence, visual plant response rating; conditions: for Foxtail, Giant plant response rating (0 to 100 scale): 500 g ai/ha, postemergence, 0 is no effect, 100 is complete control; for Foxtail, Giant plant response rating: Postemergence, 125 g ai/ha, 0 to 100 scale (0 no effect, 100 complete control)
How it was run: as §2

[11] = test system: ragweed (common ragweed, Ambrosia elatior); assay: Test A postemergence, visual plant response rating; conditions: for Ragweed plant response rating (0 to 100 scale): 500 g ai/ha, postemergence, 0 is no effect, 100 is complete control; for Ragweed plant response rating: Postemergence, 125 g ai/ha, 0 to 100 scale (0 no effect, 100 complete control)
How it was run: as §2

[12] = test system: barnyardgrass (Echinochloa crus-galli); assay: Test A postemergence, visual plant response rating; conditions: for Barnyardgrass plant response rating (0 to 100 scale): 500 g ai/ha, postemergence, 0 is no effect, 100 is complete control; for Barnyardgrass plant response rating: Postemergence, 125 g ai/ha, 0 to 100 scale (0 no effect, 100 complete control)
How it was run: as §2

[13] = test system: wheat (Triticum aestivum); assay: Test A postemergence, visual plant response rating; conditions: for Wheat plant response rating (0 to 100 scale): 500 g ai/ha, postemergence, 0 is no effect, 100 is complete control; for Wheat plant response rating: Postemergence, 125 g ai/ha, 0 to 100 scale (0 no effect, 100 complete control)
How it was run: as §2

[14] = test system: pigweed (Amaranthus retroflexus); assay: Test A postemergence, visual plant response rating; conditions: for Pigweed plant response rating (0 to 100 scale): 500 g ai/ha, postemergence, 0 is no effect, 100 is complete control; for Pigweed plant response rating: Postemergence, 125 g ai/ha, 0 to 100 scale (0 no effect, 100 complete control)
How it was run: as §2

[15] = test system: Italian ryegrass (Lolium multiflorum); assay: Test A preemergence, visual plant response rating; conditions: for Ryegrass, Italian plant response rating (0 to 100 scale): approx. 10 days
How it was run: as §2

[16] = test system: kochia (Kochia scoparia); assay: Test A preemergence, visual plant response rating; conditions: for Kochia plant response rating (0 to 100 scale): approx. 10 days
How it was run: as §2

[17] = test system: foxtail, giant (giant foxtail, Setaria faberii); assay: Test A preemergence, visual plant response rating; conditions: for Foxtail, Giant plant response rating (0 to 100 scale): approx. 10 days
How it was run: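 Ratings 0–100 (100 = complete control), visual, vs untreated controls at ~10 days. Application pre- or postemergence; solvent mixture with surfactant; loam/sand medium.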

[18] = test system: ragweed (common ragweed, Ambrosia elatior); assay: Test A preemergence, visual plant response rating; conditions: for Ragweed plant response rating (0 to 100 scale): approx. 10 days
How it was run: as §2

[19] = test system: barnyardgrass (Echinochloa crus-galli); assay: Test A preemergence, visual plant response rating; conditions: for Barnyardgrass plant response rating (0 to 100 scale): approx. 10 days
How it was run: as §2

[20] = test system: pigweed (Amaranthus retroflexus); assay: Test A preemergence, visual plant response rating; conditions: for Pigweed plant response rating (0 to 100 scale): approx. 10 days
How it was run: as §2

[21] = 125 g ai/ha, preemergence, 0 to 100 scale, 0 no effect, 100 complete control

SMILES | Plant response rating, Rice (0 to 100 scale, 0 is no effect, 100 is complete control) [1] | Plant response rating, Ducksalad (0 to 100 scale, 0 is no effect, 100 is complete control) [2] | Plant response rating, Sedge, Umbrella (0 to 100 scale, 0 is no effect, 100 is complete control) [3] | Plant response rating, Barnyardgrass (0 to 100 scale, 0 is no effect, 100 is complete control) [4] | Ryegrass, Italian plant response rating (0 to 100 scale) [5] | Ryegrass, Italian plant response rating [5] | Kochia plant response rating (0 to 100 scale) [6] | Kochia plant response rating [6] | Galium plant response rating (0 to 100 scale) [7] | Galium plant response rating [7] | Blackgrass plant response rating (0 to 100 scale) [8] | Blackgrass plant response rating [8] | Corn plant response rating (0 to 100 scale) [9] | Corn plant response rating [9] | Foxtail, Giant plant response rating (0 to 100 scale) [10] | Foxtail, Giant plant response rating [10] | Ragweed plant response rating (0 to 100 scale) [11] | Ragweed plant response rating [11] | Barnyardgrass plant response rating (0 to 100 scale) [12] | Barnyardgrass plant response rating [12] | also measured
CON=C(c1ccccc1C1CC1)c1c(O)c(C)nn(C)c1=O [Compound 105] | 0 | 0 | 0 | 0 | 90 | 90 | 80 | 70 | 90 | 90 | 90 | 80 | 30 | 10 | 80 | 70 | 90 | 90 | 80 | 40 | Wheat plant response rating (0 to 100 scale) [13]: 80; Wheat plant response rating [13]: 60; Pigweed plant response rating (0 to 100 scale) [14]: 70; Pigweed plant response rating [14]: 60; Ryegrass, Italian plant response rating [15, 21]: 90; Ryegrass, Italian plant response rating (0 to 100 scale) ([15]; 500 g ai/ha Preemergence): 100; Kochia plant response rating [16, 21]: 10; Kochia plant response rating (0 to 100 scale) ([16]; 500 g ai/ha Preemergence): 70; Foxtail, Giant plant response rating [17, 21]: 60; Foxtail, Giant plant response rating (0 to 100 scale) ([17]; 500 g ai/ha Preemergence): 90; Ragweed plant response rating [18, 21]: 50; Ragweed plant response rating (0 to 100 scale) ([18]; 500 g ai/ha Preemergence): 60; Barnyardgrass plant response rating [19, 21]: 60; Barnyardgrass plant response rating (0 to 100 scale) ([19]; 500 g ai/ha Preemergence): 80; Pigweed plant response rating [20, 21]: 70; Pigweed plant response rating (0 to 100 scale) ([20]; 500 g ai/ha Preemergence): 70
CON=C(c1cccc(Cl)c1)c1c(O)c(C)nn(C2CC2)c1=O (mixture of isomers) [Compound 33] | 0 | 0 | 0 | 0 | 60 | 10 | 40 | 20 | 70 | 40 | 0 | 0 | 0 | 0 | 10 | 0 | 60 | 10 | 0 | 0 | Wheat plant response rating (0 to 100 scale) [13]: 20; Wheat plant response rating [13]: 0; Pigweed plant response rating (0 to 100 scale) [14]: 30; Pigweed plant response rating [14]: 10; Ryegrass, Italian plant response rating (0 to 100 scale) ([15]; 125 g ai/ha Preemergence): 20; Ryegrass, Italian plant response rating (0 to 100 scale) ([15]; 500 g ai/ha Preemergence): 60; Kochia plant response rating (0 to 100 scale) ([16]; 125 g ai/ha Preemergence): 0; Kochia plant response rating (0 to 100 scale) ([16]; 500 g ai/ha Preemergence): 10; Foxtail, Giant plant response rating (0 to 100 scale) ([17]; 125 g ai/ha Preemergence): 0; Foxtail, Giant plant response rating (0 to 100 scale) ([17]; 500 g ai/ha Preemergence): 0; Ragweed plant response rating (0 to 100 scale) ([18]; 125 g ai/ha Preemergence): 0; Ragweed plant response rating (0 to 100 scale) ([18]; 500 g ai/ha Preemergence): 20; Barnyardgrass plant response rating (0 to 100 scale) ([19]; 125 g ai/ha Preemergence): 0; Barnyardgrass plant response rating (0 to 100 scale) ([19]; 500 g ai/ha Preemergence): 0; Pigweed plant response rating (0 to 100 scale) ([20]; 125 g ai/ha Preemergence): 0; Pigweed plant response rating (0 to 100 scale) ([20]; 500 g ai/ha Preemergence): 70
